#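 The compound was tested at five concentrations on cells cultured in 96-well plates, with a 48-hour exposure period. TGI: concentration producing complete growth inhibition.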
# Key:
# Experiment in all cases: NCI anticancer screen, dose series, 48 h
# [1] = system: SF-295 CNS
# [2] = system: MOLT-4 leukemia
# [3] = system: MDA-MB-435
# [4] = system: HCT-116 colon
# [5] = system: UACC-62 melanoma
# [6] = system: NCI-H460 lung
# [7] = system: SF-268 CNS
# [8] = system: HOP-62 NSCLC
# [9] = system: U251 CNS
# [10] = system: OVCAR-3 ovarian
# [11] = system: PC-3 prostate
# [12] = system: COLO 205 colon
# [13] = system: MDA-MB-231 breast
# [14] = system: HT29 colon
# [15] = system: A498 renal
# [16] = system: RPMI-8226 leukemia
SMILES,TGI [1] [µM],TGI [2] [µM],TGI [3] [µM],TGI [4] [µM],TGI [5] [µM],TGI [6] [µM],TGI [7] [µM],TGI [8] [µM],TGI [9] [µM],TGI [10] [µM],TGI [11] [µM],TGI [12] [µM],TGI [13] [µM],TGI [14] [µM],TGI [15] [µM],TGI [16] [µM]
ONC1=Nc2ccccc2C(=S)N2CSCC12 (stereo unspecified),> 100,> 100,48.1,> 100,> 100,42.3,> 100,> 100,> 100,> 100,> 100,> 100,> 100,> 100,> 100,> 100
O=C1OC(C2(O)OC(=O)c3ccccc32)c2ccccc21 (stereo unspecified),> 100,> 100,> 100,> 100,> 100,> 100,> 100,> 100,> 100,> 100,> 100,> 100,> 100,> 100,> 100,> 100
c1ccc(C(=NCCC2CNc3ccccc32)c2ccccc2)cc1 (stereo unspecified),> 100,> 100,> 100,> 100,> 100,> 100,,> 100,> 100,> 100,> 100,> 100,> 100,> 100,> 100,> 100
CN(C(=O)C1=CCC2(CC1)OCCO2)c1ccccc1I,> 100,> 100,> 100,> 100,> 100,> 100,,> 100,> 100,> 100,> 100,> 100,> 100,> 100,> 100,> 100
O=c1c(-c2ccccc2F)coc2cc(F)ccc12,> 100,> 100,> 100,> 100,> 100,> 100,> 100,> 100,> 100,> 100,> 100,> 100,> 100,> 100,> 100,
COc1ccc(NC(C)=O)c(C(O)CCNC(C)=O)c1 (stereo unspecified),> 100,> 100,> 100,> 100,> 100,> 100,> 100,,> 100,> 100,> 100,> 100,> 100,> 100,> 100,> 100
O/N=C1/CC2(N3CCOCC3)C3CC/C(=N\O)C2CC1(Cc1ccccc1)C3 (stereo unspecified),> 100,> 100,> 100,> 100,> 100,> 100,> 100,> 100,> 100,> 100,> 100,> 100,> 100,> 100,> 100,
CCCCCCCCCCCCCCCCOP(=O)(O)OCC(NC(C)=O)C(=O)O (stereo unspecified),47.4,51.8,> 100,> 100,,> 100,95.9,36.9,40.8,> 100,34.7,> 100,93.2,> 100,> 100,> 100
N=CN=CC(=S)O[C@@H]1C(=O)N2CCC[C@@]23CCCC[C@@H]13,> 12.5,,> 12.5,> 12.5,> 12.5,> 12.5,> 12.5,> 12.5,> 12.5,,> 12.5,> 12.5,> 12.5,> 12.5,> 12.5,> 12.5
CSc1nc2c(c(N3CCOCC3)n1)C(O)n1c(nc3ccccc31)S2 (stereo unspecified),> 100,> 100,> 100,> 100,> 100,> 100,> 100,> 100,> 100,> 100,> 100,,> 100,> 100,> 100,> 100
O=C(NC(Cc1cnc[nH]1)C(=O)N1CCCC1)C1CCCC1 (stereo unspecified),> 100,> 100,> 100,> 100,> 100,> 100,,> 100,> 100,> 100,> 100,> 100,> 100,> 100,> 100,> 100
COc1cc(/C=C\c2nnc(/C=C\c3ccc(O)c(OC)c3)s2)ccc1O,13.5,10.7,0.549,14,18.8,> 35.2,41.2,42,17.1,10.7,> 64.3,41.4,> 57.5,23.4,6.4,
CN(C)c1ccc(C2CC(c3ccc4ccccc4c3O)=NN2c2ccc([N+](=O)[O-])cc2[N+](=O)[O-])cc1 (stereo unspecified),> 100,94.5,34.6,> 100,37.2,> 100,> 100,> 100,> 100,> 100,> 100,> 100,> 100,> 100,> 100,
Cc1ccc(OCC2OC(n3cnc4c(Cl)nc(Cl)nc43)CC2Oc2ccc(C)cc2)cc1 (stereo unspecified),5.42,4.27,5.48,3.65,4.1,3.39,4.19,7.37,4.91,6,6.57,3.73,3.99,2.91,44.8,
Oc1cc(N2CCCC2)ccc1/C=N/N1C(=S)N(c2ccccc2)C(=Nc2ccccc2)C1=Nc1ccccc1,> 100,> 100,> 100,> 100,> 100,> 100,> 100,> 100,> 100,> 100,> 100,> 100,90.3,> 100,,> 100

# Source: PubChem BioAssay (NCI)
